Source: US8071605B2, “Piperidine compounds for use in the treatment of bacterial infections” (AstraZeneca AB, priority 2008, dated 2011)

target: S. aureus GyrB ATPase (Staphylococcus aureus, UniProt P0A0K8); experiment: S. aureus GyrB ATPase inhibition (ammonium molybdate/malachite green phosphate detection); assay type: biochemical; settings: compound concentration of 1 μM (unless otherwise noted)
Method: E. coli GyrB ATPase Inhibition Activity: Compounds can be tested for inhibition of E. coli GyrB ATPase activity using an ammonium molybdate/malachite green-based phosphate detection assay (Lanzetta, P. A., L. J. Alvarez, P. S. Reinach, and O. A. Candia, 1979, 100: 95-97). Assays can be performed in multiwell plates in 30 μl reactions containing: 50 mM Hepes buffer pH 7.5, 75 mM ammonium acetate, 8.0 mM magnesium chloride, 0.5 mM ethylenediaminetetraacetic acid, 5% glycerol, 1 mM 1,4-Dithio-DL-threitol, 200 nM bovine serum albumin, 1.6 μg/ml sheared salmon sperm DNA, 400 pM E. coli GyrA, 400 pM E. coli GyrB, 250 μM ATP, and compound in dimethylsulfoxide. Reactions can be quenched with 30 μl of ammonium molybdate/malachite green detection reagent containing 1.2 mM malachite green hydrochloride, 8.5 mM ammonium molybdate tetrahydrate, and 1 M hydrochloric acid. Plates can be read in an absorbance plate reader at 650 nm and percent inhibition values are calculated using dimethylsulfoxide (2%)-containing reactions as 0% inhibition and EDTA-containing (2.4 μM) reactions as 100% inhibition controls. An IC50 measurement of compound potency for each compound can be determined from reactions performed in the presence of 10 different compound concentrations. E. coli Topoisomerase IV ATPase Inhibition Activity: Compounds can be tested for inhibition of E. coli topoisomerase IV ATPase activity as described above for E. coli GyrB except the 30 μl reactions contained the following: 20 mM TRIS buffer pH 8, 50 mM ammonium acetate, 8 mM magnesium chloride, 5% glycerol, 5 mM 1,4-Dithio-DL-threitol, 0.005% Brij-35, 5 μg/ml sheared salmon sperm DNA, 500 pM E. coli ParC, 500 pM E. coli ParE, 160 μM ATP, and compound in dimethylsulfoxide. An IC50 measurement of compound potency for each compound can be determined from reactions performed in the presence of 10 different compound concentrations. S. aureus GyrB ATPase Inhibition Activity: Compounds may be tested for inhibition of S. aureus GyrB ATPase activity using an ammonium molybdate/malachite green-based phosphate detection assay (Lanzetta, P. A., L. J. Alvarez, P. S. Reinach, and O. A. Candia, 1979, 100: 95-97). Assays can be performed in multiwell plates in 30 μl reactions containing: 50 mM Hepes buffer pH 7.5, 75 mM ammonium acetate, 8.0 mM magnesium chloride, 0.5 mM ethylenediaminetetraacetic acid, 5% glycerol, 1.0 mM 1,4-Dithio-DL-threitol, 200 nM bovine serum albumin, 1.0 μg/ml sheared salmon sperm DNA, 250 pM E. coli GyrA, 250 pM S. aureus GyrB, 250 μM ATP, and compound in dimethylsulfoxide. Reactions can be quenched with 30 μl of ammonium molybdate/malachite green detection reagent containing 1.2 mM malachite green hydrochloride, 8.5 mM ammonium molybdate tetrahydrate, and 1 M hydrochloric acid. Plates can be read in an absorbance plate reader at 650 nm and percent inhibition values can be calculated using dimethylsulfoxide (2%)-containing reactions as 0% inhibition and EDTA-containing (2.4 μM) reactions as 100% inhibition controls. An IC50 measurement of compound potency for each compound can be determined from reactions performed in the presence of 10 different compound concentrations.
Compounds of the invention were tested in an assay substantially similar to the assay described above for measuring the inhibition of S. aureus GyrB ATPase. Percent inhibition of S. aureus GyrB ATPase at a compound concentration of 1 μM (unless otherwise noted) is disclosed in the following table: […]

S. aureus GyrB ATPase, sequence (P0AES4 whole entry): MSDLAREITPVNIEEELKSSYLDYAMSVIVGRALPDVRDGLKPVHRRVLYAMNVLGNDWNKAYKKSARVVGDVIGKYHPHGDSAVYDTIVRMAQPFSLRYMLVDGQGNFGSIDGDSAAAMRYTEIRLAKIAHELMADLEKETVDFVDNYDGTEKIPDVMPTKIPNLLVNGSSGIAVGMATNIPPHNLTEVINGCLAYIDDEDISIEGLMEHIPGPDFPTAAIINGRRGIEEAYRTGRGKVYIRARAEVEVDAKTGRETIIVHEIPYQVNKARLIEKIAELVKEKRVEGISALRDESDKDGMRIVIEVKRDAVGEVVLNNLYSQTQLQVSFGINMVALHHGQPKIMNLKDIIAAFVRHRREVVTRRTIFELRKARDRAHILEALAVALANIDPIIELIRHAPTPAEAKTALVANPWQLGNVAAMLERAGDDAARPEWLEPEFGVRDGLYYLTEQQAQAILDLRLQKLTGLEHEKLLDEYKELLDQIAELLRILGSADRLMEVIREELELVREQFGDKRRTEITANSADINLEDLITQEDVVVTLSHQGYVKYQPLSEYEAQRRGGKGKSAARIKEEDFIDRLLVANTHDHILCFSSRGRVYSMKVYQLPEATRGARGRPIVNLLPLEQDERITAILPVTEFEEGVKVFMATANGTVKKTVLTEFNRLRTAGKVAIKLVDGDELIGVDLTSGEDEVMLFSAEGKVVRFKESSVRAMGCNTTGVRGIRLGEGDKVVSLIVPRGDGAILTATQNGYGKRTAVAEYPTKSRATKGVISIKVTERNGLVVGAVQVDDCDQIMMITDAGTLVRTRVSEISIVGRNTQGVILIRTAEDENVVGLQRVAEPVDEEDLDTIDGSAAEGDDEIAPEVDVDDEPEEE
S. aureus GyrB ATPase, sequence (P0A0K8 whole entry): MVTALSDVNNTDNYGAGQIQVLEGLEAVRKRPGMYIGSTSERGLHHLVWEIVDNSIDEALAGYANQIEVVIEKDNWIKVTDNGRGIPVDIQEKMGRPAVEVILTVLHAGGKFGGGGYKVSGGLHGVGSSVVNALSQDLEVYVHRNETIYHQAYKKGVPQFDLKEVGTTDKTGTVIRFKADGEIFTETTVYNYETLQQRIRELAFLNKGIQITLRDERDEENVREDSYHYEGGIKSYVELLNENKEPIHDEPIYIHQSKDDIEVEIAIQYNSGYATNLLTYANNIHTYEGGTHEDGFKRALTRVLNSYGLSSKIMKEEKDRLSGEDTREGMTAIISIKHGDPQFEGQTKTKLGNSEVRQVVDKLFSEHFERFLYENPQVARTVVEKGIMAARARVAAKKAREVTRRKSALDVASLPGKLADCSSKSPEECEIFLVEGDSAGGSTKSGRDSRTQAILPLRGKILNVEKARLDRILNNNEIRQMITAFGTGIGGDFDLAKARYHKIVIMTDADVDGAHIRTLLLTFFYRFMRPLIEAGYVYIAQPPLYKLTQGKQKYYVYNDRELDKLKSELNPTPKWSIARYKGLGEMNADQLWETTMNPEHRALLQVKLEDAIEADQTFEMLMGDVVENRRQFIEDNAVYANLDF

Row | Structure (SMILES) | inhibition at 1 µM
1 | Cc1[nH]c(C(=O)N[C@@H]2CCN(c3nc(-c4cnc(NCCN(C)C)cn4)c(C(=O)O)s3)C[C@@H]2C)c(Cl)c1Cl [Example 174, 2-[(3S,4R)-4-{[(3,4-dichloro-5-methyl-1H-pyrrol-2-yl)carbonyl]amino}-3-methylpiperidin-1-yl]-4-(5-{[2-(dimethylamino)ethyl]amino}pyrazin-2-yl)-1,3-thiazole-5-carboxylic acid] | 102%
2 | CO[C@H]1CN(c2nc(-c3cnc(N4CCN(CC5CCCCC5)CC4)cn3)c(C(=O)O)s2)CC[C@H]1NC(=O)c1[nH]c(C)c(Cl)c1Cl [Example 136] | 104%
3 | Cc1[nH]c(C(=O)N[C@@H]2CCN(c3nc(-c4ncccc4F)c(C(=O)O)s3)C[C@@H]2C)c(Cl)c1Cl [Example 24] | 120%
4 | CCO[C@H]1CN(c2nc(-c3cnc(N4CCN(CCO)CC4)cn3)c(C(=O)O)s2)CC[C@H]1NC(=O)c1[nH]c(C)c(Cl)c1Cl [Example 103] | 102%
5 | COCCNc1cnc(-c2nc(N3CC[C@@H](NC(=O)c4[nH]c(C)c(Cl)c4Cl)[C@@H](C)C3)sc2C(=O)O)cn1 [Example 170, 2-[(3S,4R)-4-{[(3,4-dichloro-5-methyl-1H-pyrrol-2-yl)carbonyl]amino}-3-methylpiperidin-1-yl]-4-{5-[(2-methoxyethyl)amino]pyrazin-2-yl}-1,3-thiazole-5-carboxylic acid] | 119%
6 | CO[C@H]1CN(c2nc(-c3cnc(NCCN(C)C)cn3)c(C(=O)O)s2)CC[C@H]1NC(=O)c1[nH]c(C)c(Cl)c1Cl [Example 132] | 103%
7 | CCO[C@H]1CN(c2nc(-c3cnc(N4CCCCC4)cn3)c(C(=O)O)s2)CC[C@H]1NC(=O)c1[nH]c(C)c(Cl)c1Cl [Example 86, 2-[(3S,4R)-4-{[(3,4-dichloro-5-methyl-1H-pyrrol-2-yl)carbonyl]amino}-3-ethoxypiperidin-1-yl]-4-[5-(piperidin-1-yl)pyrazin-2-yl]-1,3-thiazole-5-carboxylic acid] | 105%
8 | Cc1[nH]c(C(=O)N[C@@H]2CCN(c3nc(-c4cnccn4)c(C(=O)O)s3)C[C@@H]2C)cc1Cl [Example 21] | 118%
9 | C=CCO[C@H]1CN(c2nc(-c3ncnn3C)c(C(=O)O)s2)CC[C@H]1NC(=O)c1[nH]c(C)c(Cl)c1C#N [Example 5] | 5%
10 | CCO[C@H]1CN(c2nc(-c3ncnn3C)c(C(=O)O)s2)CC[C@H]1NC(=O)c1cc(Cl)c(C)[nH]1 [Example 16] | 103%
11 | C=CCO[C@H]1CN(c2nc(-c3nccn3CCOC)c(C(=O)O)s2)CC[C@H]1NC(=O)c1[nH]c(C)c(Cl)c1Cl [Example 2] | 103%
12 | C=CCO[C@H]1CN(c2nc(-c3ncccc3F)c(C(=O)O)s2)CC[C@H]1NC(=O)c1[nH]c(C)c(Cl)c1C#N [Example 6] | 99%
13 | COCC(COC)Nc1cnc(-c2nc(N3CC[C@@H](NC(=O)c4[nH]c(C)c(Cl)c4Cl)[C@@H](C)C3)sc2C(=O)O)cn1 [Example 172, 2-[(3S,4R)-4-{[(3,4-dichloro-5-methyl-1H-pyrrol-2-yl)carbonyl]amino}-3-methylpiperidin-1-yl]-4-{5-[(1,3-dimethoxypropan-2-yl)amino]pyrazin-2-yl}-1,3-thiazole-5-carboxylic acid] | 109%
14 | CCN1CCN(c2cnc(-c3nc(N4CC[C@@H](NC(=O)c5[nH]c(C)c(Cl)c5Cl)[C@@H](C)C4)sc3C(=O)O)cn2)CC1 [Example 164, 2-[(3S,4R)-4-{[(3,4-dichloro-5-methyl-1H-pyrrol-2-yl)carbonyl]amino}-3-methylpiperidin-1-yl]-4-[5-(4-ethylpiperazin-1-yl)pyrazin-2-yl]-1,3-thiazole-5-carboxylic acid] | 117%
15 | CCO[C@H]1CN(c2nc(-c3cnc(N4CCN(CC)CC4)cn3)c(C(=O)O)s2)CC[C@H]1NC(=O)c1[nH]c(C)c(Cl)c1Cl [Example 100] | 102%
16 | CCO[C@H]1CN(c2nc(-c3ncccc3F)c(C(=O)O)s2)CC[C@H]1NC(=O)c1[nH]c(C)c(Cl)c1Cl [Example 10] | 90%
17 | CCO[C@H]1CN(c2nc(-c3cnc(NCCN(C)C)cn3)c(C(=O)O)s2)CC[C@H]1NC(=O)c1[nH]c(C)c(Cl)c1Cl [Example 94] | 104%
18 | CO[C@H]1CN(c2nc(-c3cnc(OCCN4CCCC4)cn3)c(C(=O)O)s2)CC[C@H]1NC(=O)c1[nH]c(C)c(Cl)c1Cl [Example 62, 2-[(3S,4R)-4-{[(3,4-dichloro-5-methyl-1H-pyrrol-2-yl)carbonyl]amino}-3-methoxypiperidin-1-yl]-4-{5-[2-(pyrrolidin-1-yl)ethoxy]pyrazin-2-yl}-1,3-thiazole-5-carboxylic acid] | 98%
19 | CCO[C@H]1CN(c2nc(-c3cnc(NCCN4CCOCC4)cn3)c(C(=O)O)s2)CC[C@H]1NC(=O)c1[nH]c(C)c(Cl)c1Cl [Example 91] | 105%
20 | Cc1[nH]c(C(=O)N[C@@H]2CCN(c3nc(-c4cnc(N5CCOCC5)cn4)c(C(=O)O)s3)C[C@@H]2C)c(Cl)c1Cl [Example 166, 2-[(3S,4R)-4-{[(3,4-dichloro-5-methyl-1H-pyrrol-2-yl)carbonyl]amino}-3-methylpiperidin-1-yl]-4-[5-(morpholin-4-yl)pyrazin-2-yl]-1,3-thiazole-5-carboxylic acid] | 110%
21 | CO[C@H]1CN(c2nc(-c3nccc(N4CCCCC4)n3)c(C(=O)O)s2)CC[C@H]1NC(=O)c1[nH]c(C)c(Cl)c1Cl [Example 189, 2-[(3S,4R)-4-{[(3,4-dichloro-5-methyl-1H-pyrrol-2-yl)carbonyl]amino}-3-methoxypiperidin-1-yl]-4-[4-(piperidin-1-yl)pyrimidin-2-yl]-1,3-thiazole-5-carboxylic acid] | 106%
22 | CO[C@H]1CN(c2nc(-c3cnc(N4CCNCC4)cn3)c(C(=O)O)s2)CC[C@H]1NC(=O)c1[nH]c(C)c(Cl)c1Cl [Example 126] | 108%
23 | Cc1[nH]c(C(=O)N[C@@H]2CCN(c3nc(-c4ncnn4C)c(C(=O)O)s3)C[C@@H]2C)c(C#N)c1Cl [Example 26] | 97%
24 | CCO[C@H]1CN(c2nc(-c3cnc(NCCOC)cn3)c(C(=O)O)s2)CC[C@H]1NC(=O)c1[nH]c(C)c(Cl)c1Cl [Example 90] | 103%
25 | CCCO[C@H]1CN(c2nc(-c3nccn3CCOC)c(C(=O)O)s2)CC[C@H]1NC(=O)c1cc(Cl)c(C)[nH]1 [Example 201, 2-[(3S,4R)-4-{[(4-chloro-5-methyl-1H-pyrrol-2-yl)carbonyl]amino}-3-propoxypiperidin-1-yl]-4-[1-(2-methoxyethyl)-1H-imidazol-2-yl]-1,3-thiazole-5-carboxylic acid] | 105%
26 | Cc1[nH]c(C(=O)N[C@@H]2CCN(c3nc(-c4cnc(N5CCN(C)CC5)cn4)c(C(=O)O)s3)C[C@@H]2C)c(Cl)c1Cl [Example 167, 2-[(3S,4R)-4-{[(3,4-dichloro-5-methyl-1H-pyrrol-2-yl)carbonyl]amino}-3-methylpiperidin-1-yl]-4-[5-(4-methylpiperazin-1-yl)pyrazin-2-yl]-1,3-thiazole-5-carboxylic acid] | 113%
27 | CO[C@H]1CN(c2nc(-c3cnc(N4CCN(CC5CCCN(C)C5)CC4)cn3)c(C(=O)O)s2)CC[C@H]1NC(=O)c1[nH]c(C)c(Cl)c1Cl (some centres unmarked) [Example 135] | 98%
28 | CCCO[C@H]1CN(c2nc(-c3ncnn3C)c(C(=O)O)s2)CC[C@H]1NC(=O)c1[nH]c(C)c(Cl)c1C#N [Example 208, 2-[(3S,4R)-4-{[(4-chloro-3-cyano-5-methyl-1H-pyrrol-2-yl)carbonyl]amino}-3-propoxypiperidin-1-yl]-4-(1-methyl-1H-1,2,4-triazol-5-yl)-1,3-thiazole-5-carboxylic acid] | 108%
29 | CCO[C@H]1CN(c2nc(-c3cnc(N4CCN(CCN(CC)CC)CC4)cn3)c(C(=O)O)s2)CC[C@H]1NC(=O)c1[nH]c(C)c(Cl)c1Cl [Example 101] | 117%
